Measured values published in patent publication US5840684A, “Glycopeptide antibiotic derivatives” (Eli Lilly and Company, priority 1995, dated 1998).
Values after ≈ are worked out from the molar mass of the structure shown.

Columns and labels:
[1] = test system: Staphylococcus haemolyticus 415; assay: broth micro-dilution MIC; type: cell-based
Description: (§1) The formula I compounds have in vitro and in vivo activity against Gram-positive pathogenic bacteria. The MIC's were determined using a standard broth micro-dilution assay.

Entercoccus faecium 180 = assay: broth micro-dilution MIC; type: cell-based; conditions: Entercoccus faecium 180
Description: as §1

[2] = test system: Staphylococcus epidermidis 270; assay: broth micro-dilution MIC; type: cell-based
Description: as §1

[3] = test system: Staphylococcus haemolyticus 105; assay: broth micro-dilution MIC; type: cell-based
Description: as §1

Entercoccus faecium 2041 = assay: broth micro-dilution MIC; type: cell-based; conditions: Entercoccus faecium 2041
Description: as §1

[4] = test system: Streptococcus pneumoniae P1; assay: broth micro-dilution MIC; type: cell-based
Description: as §1

[5] = test system: Enterococcus gallinarum 245; assay: broth micro-dilution MIC; type: cell-based; conditions: Enterococcus gallinarum 245
Description: as §1

[6] = test system: vancomycin-resistant enterococci; assay: broth micro-dilution, mean geometric MIC; type: cell-based, Enterococcus faecium and Enterococcus faecalis; conditions: enterococci, 24-hour incubation
[7] = test system: vancomycin-susceptible enterococci; assay: broth micro-dilution, mean geometric MIC; type: cell-based, Enterococcus faecium and Enterococcus faecalis; conditions: enterococci, 24-hour incubation
Entercoccus faecium 276 = assay: broth micro-dilution MIC; type: cell-based
Description: (§2) The MIC's were determined using a standard broth micro-dilution assay.

[8] = test system: Staphylococcus aureus 446; assay: broth micro-dilution MIC; type: cell-based
Description: as §2

[9] = test system: Entercoccus faecium 180-1; assay: broth micro-dilution MIC; type: cell-based
Description: as §2

[10] = test system: Streptococcus pyogenes C203; assay: broth micro-dilution MIC; type: cell-based
Description: as §2

[11] = test system: Staphylococcus aureus 489; assay: broth micro-dilution MIC; type: cell-based
Description: as §2

[12] = test system: Staphylococcus aureus X400; assay: broth micro-dilution MIC; type: cell-based
Description: as §2

[13] = test system: Staphylococcus aureus X778; assay: broth micro-dilution MIC; type: cell-based
Description: as §2

[14] = test system: Staphylococcus aureus SA1199; assay: broth micro-dilution MIC; type: cell-based
Description: as §2

[15] = test system: Staphylococcus aureus 447; assay: broth micro-dilution MIC; type: cell-based
Description: as §2

[16] = test system: Staphylococcus aureus 491; assay: broth micro-dilution MIC; type: cell-based
Description: as §2

[17] = test system: Staphylococcus aureus S13E; type: cell-based
Description: as §2

[18] = test system: Staphylococcus aureus SA1199B; type: cell-based
Description: as §2

[19] = test system: Staphylococcus aureus SA1199A; assay: broth micro-dilution MIC; type: cell-based
Description: as §2

Row | Structure (SMILES) | MIC [1] | MIC (Entercoccus faecium 180) | MIC [2] | MIC [3] | MIC (Entercoccus faecium 2041) | MIC [4] | MIC [5] | mean geometric MIC, Vancomycin Resistant Strains [6] | mean geometric MIC, Vancomycin Sensitive Strains [7] | MIC (Entercoccus faecium 276) | MIC [8] | MIC [9] | MIC [11] | MIC [12] | MIC [13] | MIC [14] | MIC [15] | MIC [16] | MIC [17] | MIC [18] | also measured
1 | CNC(CC(C)C)C(=O)NC1C(=O)NC(CC(N)=O)C(=O)NC2C(=O)NC3C(=O)NC(C(=O)NC(C(=O)O)c4cc(O)cc(O)c4-c4cc3ccc4O)C(OC3CC(C)(N)C(O)C(C)O3)c3ccc(c(Cl)c3)Oc3cc2cc(c3OC2OC(CO)C(O)C(O)C2OC2CC(C)(NCc3ccc(OC)c4ccccc34)C(O)C(C)O2)Oc2ccc(cc2Cl)C1O (stereo not drawn) [Compound 15] | 2 µg/mL (≈ 1.13 µM) | 0.5 µg/mL (≈ 0.284 µM) | 1 µg/mL (≈ 0.567 µM) | 0.5 µg/mL (≈ 0.284 µM) | ≤ 0.06 µg/mL | ≤ 0.06 µg/mL | ≤ 0.06 µg/mL | 6.7 µg/mL | 0.14 µg/mL | ≤ 0.06 µg/mL | 1 µg/mL (≈ 0.567 µM) | ≤ 0.06 µg/mL | ≤ 0.06 µg/mL | 0.25 µg/mL (≈ 0.142 µM) | 0.25 µg/mL (≈ 0.142 µM) | 0.25 µg/mL (≈ 0.142 µM) | 2 µg/mL (≈ 1.13 µM) | 0.25 µg/mL (≈ 0.142 µM) | 0.5 µg/mL (≈ 0.284 µM) | 0.25 µg/mL (≈ 0.142 µM) | MIC [10]: ≤ 0.06 µg/mL
2 | CNC(CC(C)C)C(=O)NC1C(=O)NC(CC(N)=O)C(=O)NC2C(=O)NC3C(=O)NC(C(=O)NC(C(=O)O)c4cc(O)cc(O)c4-c4cc3ccc4O)C(OC3CC(C)(N)C(O)C(C)O3)c3ccc(c(Cl)c3)Oc3cc2cc(c3OC2OC(CO)C(O)C(O)C2OC2CC(C)(NCc3cccc(OCc4ccc5ccccc5n4)c3)C(O)C(C)O2)Oc2ccc(cc2Cl)C1O (stereo not drawn) [Compound 125] | 2 µg/mL (≈ 1.09 µM) | 1 µg/mL (≈ 0.544 µM) | 1 µg/mL (≈ 0.544 µM) | 4 µg/mL (≈ 2.17 µM) | ≤ 0.06 µg/mL | ≤ 0.06 µg/mL | 12 µg/mL (≈ 6.52 µM) | 3.4 µg/mL | 0.14 µg/mL | 2 µg/mL (≈ 1.09 µM) | 4 µg/mL (≈ 2.17 µM) | ≤ 0.06 µg/mL | 2 µg/mL (≈ 1.09 µM) | 1 µg/mL (≈ 0.544 µM) | 2 µg/mL (≈ 1.09 µM) | 0.5 µg/mL (≈ 0.272 µM) | 2 µg/mL (≈ 1.09 µM) | 1 µg/mL (≈ 0.544 µM) | 1 µg/mL (≈ 0.544 µM) | 2 µg/mL (≈ 1.09 µM) | MIC [10]: ≤ 0.06 µg/mL
3 | CNC(CC(C)C)C(=O)NC1C(=O)NC(CC(N)=O)C(=O)NC2C(=O)NC3C(=O)NC(C(=O)NC(C(=O)O)c4cc(O)cc(O)c4-c4cc3ccc4O)C(OC3CC(C)(N)C(O)C(C)O3)c3ccc(c(Cl)c3)Oc3cc2cc(c3OC2OC(CO)C(O)C(O)C2OC2CC(C)(NCc3cccc(Oc4ccc(C(F)(F)F)cc4)c3)C(O)C(C)O2)Oc2ccc(cc2Cl)C1O (stereo not drawn) [Compound 132] | 2 µg/mL (≈ 1.09 µM) |  | 2 µg/mL (≈ 1.09 µM) | 1 µg/mL (≈ 0.543 µM) | 1 µg/mL (≈ 0.543 µM) | ≤ 0.06 µg/mL | 2 µg/mL (≈ 1.09 µM) | 1.2 µg/mL | 0.048 µg/mL | 1 µg/mL (≈ 0.543 µM) | 1 µg/mL (≈ 0.543 µM) | ≤ 0.06 µg/mL | 1 µg/mL (≈ 0.543 µM) | 1 µg/mL (≈ 0.543 µM) | 2 µg/mL (≈ 1.09 µM) | 1 µg/mL (≈ 0.543 µM) | 2 µg/mL (≈ 1.09 µM) | 0.5 µg/mL (≈ 0.271 µM) | 2 µg/mL (≈ 1.09 µM) | 2 µg/mL (≈ 1.09 µM) | MIC [10]: ≤ 0.06 µg/mL
4 | CNC(CC(C)C)C(=O)NC1C(=O)NC(CC(N)=O)C(=O)NC2C(=O)NC3C(=O)NC(C(=O)NC(C(=O)O)c4cc(O)cc(O)c4-c4cc3ccc4O)C(OC3CC(C)(N)C(O)C(C)O3)c3ccc(c(Cl)c3)Oc3cc2cc(c3OC2OC(CO)C(O)C(O)C2OC2CC(C)(NCc3ccc(OCCOC(C)(C)C)cc3)C(O)C(C)O2)Oc2ccc(cc2Cl)C1O (stereo not drawn) [Compound 154] | 4 µg/mL (≈ 2.22 µM) | 1 µg/mL (≈ 0.556 µM) | 0.5 µg/mL (≈ 0.278 µM) | 4 µg/mL (≈ 2.22 µM) |  | ≤ 0.06 µg/mL | 4 µg/mL (≈ 2.22 µM) | 2.8 µg/mL | 0.072 µg/mL | 0.5 µg/mL (≈ 0.278 µM) | 2 µg/mL (≈ 1.11 µM) | ≤ 0.06 µg/mL | 1 µg/mL (≈ 0.556 µM) | 2 µg/mL (≈ 1.11 µM) | 0.5 µg/mL (≈ 0.278 µM) | 2 µg/mL (≈ 1.11 µM) | 2 µg/mL (≈ 1.11 µM) | 0.5 µg/mL (≈ 0.278 µM) | 0.25 µg/mL (≈ 0.139 µM) | 0.25 µg/mL (≈ 0.139 µM) | MIC [10]: ≤ 0.06 µg/mL
5 | CCCCCCCCC#CCCCCCCNC1(C)CC(OC2C(Oc3c4cc5cc3Oc3ccc(cc3Cl)C(OC3CC(C)(N)C(O)C(C)O3)C3NC(=O)C(NC(=O)C5NC(=O)C(CC(N)=O)NC(=O)C(NC(=O)C(CC(C)C)NC)C(O)c5ccc(c(Cl)c5)O4)c4ccc(O)c(c4)-c4c(O)cc(O)cc4C(C(=O)O)NC3=O)OC(CO)C(O)C2O)OC(C)C1O (stereo not drawn) [Compound 207] | 1 µg/mL (≈ 0.552 µM) | 1 µg/mL (≈ 0.552 µM) | 8 µg/mL (≈ 4.41 µM) | 8 µg/mL (≈ 4.41 µM) | 0.125 µg/mL (≈ 0.069 µM) | ≤ 0.06 µg/mL | 1 µg/mL (≈ 0.552 µM) | 1.2 µg/mL | 0.50 µg/mL | 0.25 µg/mL (≈ 0.138 µM) | 8 µg/mL (≈ 4.41 µM) | ≤ 0.06 µg/mL | 4 µg/mL (≈ 2.21 µM) | 8 µg/mL (≈ 4.41 µM) | 8 µg/mL (≈ 4.41 µM) | 8 µg/mL (≈ 4.41 µM) | 8 µg/mL (≈ 4.41 µM) | 1 µg/mL (≈ 0.552 µM) | 8 µg/mL (≈ 4.41 µM) | 16 µg/mL (≈ 8.83 µM) | MIC [19]: 4 µg/mL (≈ 2.21 µM)
6 | CNC(CC(C)C)C(=O)NC1C(=O)NC(CC(N)=O)C(=O)NC2C(=O)NC3C(=O)NC(C(=O)NC(C(=O)O)c4cc(O)cc(O)c4-c4cc3ccc4O)C(OC3CC(C)(N)C(O)C(C)O3)c3ccc(c(Cl)c3)Oc3cc2cc(c3OC2OC(CO)C(O)C(O)C2OC2CC(C)(NCc3ccc(-c4ccc(C)cc4)c(C)c3)C(O)C(C)O2)Oc2ccc(cc2Cl)C1O (stereo not drawn) [Compound 225] | 4 µg/mL (≈ 2.24 µM) | ≤ 0.06 µg/mL | 1 µg/mL (≈ 0.56 µM) | 0.5 µg/mL (≈ 0.28 µM) | 0.125 µg/mL (≈ 0.07 µM) | ≤ 0.06 µg/mL | 4 µg/mL (≈ 2.24 µM) | 0.63 µg/mL | 0.072 µg/mL |  | 1 µg/mL (≈ 0.56 µM) | ≤ 0.06 µg/mL | 2 µg/mL (≈ 1.12 µM) | 1 µg/mL (≈ 0.56 µM) | 0.5 µg/mL (≈ 0.28 µM) | 1 µg/mL (≈ 0.56 µM) | 1 µg/mL (≈ 0.56 µM) | 1 µg/mL (≈ 0.56 µM) | 1 µg/mL (≈ 0.56 µM) | 2 µg/mL (≈ 1.12 µM) | MIC [10]: ≤ 0.06 µg/mL
